ChEMBL document CHEMBL4024727, “Synthesis and antimycobacterial screening of new thiazolyl-oxazole derivatives” (Eur J Med Chem, 2017)
Values after ≈ are worked out from the molar mass of the structure shown.

Columns and labels:
[1] = test system: Mycobacterium tuberculosis; experiment: Growth inhibition of Mycobacterium tuberculosis H37Ra ATCC 25177 at 30 ug/ml by XTT dye based two-fold dilution method relative to control; type: functional; settings: read-out: GI
[2] = test system: Mycobacterium tuberculosis; experiment: Growth inhibition of Mycobacterium tuberculosis H37Ra ATCC 25177 at 10 ug/ml by XTT dye based two-fold dilution method relative to control; type: functional; settings: read-out: GI
[3] = test system: Mycobacterium tuberculosis; experiment: Growth inhibition of Mycobacterium tuberculosis H37Ra ATCC 25177 at 3 ug/ml by XTT dye based two-fold dilution method relative to control; type: functional; settings: read-out: GI
[4] = test system: Mycobacterium tuberculosis; experiment: Growth inhibition of Mycobacterium bovis BCG ATCC 35743 at 30 ug/ml by nitrate reductase based two-fold dilution assay relative to control; type: functional; settings: BCG str. ATCC 35743, read-out: GI
[5] = test system: Mycobacterium tuberculosis; experiment: Growth inhibition of Mycobacterium bovis BCG ATCC 35743 at 10 ug/ml by nitrate reductase based two-fold dilution assay relative to control; type: functional; settings: BCG str. ATCC 35743, read-out: GI
[6] = test system: Mycobacterium tuberculosis; experiment: Growth inhibition of Mycobacterium bovis BCG ATCC 35743 at 1 ug/ml by nitrate reductase based two-fold dilution assay relative to control; type: functional; settings: BCG str. ATCC 35743, read-out: GI
[7] = test system: Mycobacterium tuberculosis; experiment: Antitubercular activity against Mycobacterium tuberculosis H37Ra ATCC 25177 dormant stage by XTT dye based two-fold dilution method; type: functional
[8] = test system: Mycobacterium tuberculosis; experiment: Antitubercular activity against Mycobacterium bovis BCG ATCC 35743 dormant stage by nitrate reductase based two-fold dilution assay; type: functional; settings: BCG str. ATCC 35743
Escherichia coli [9] = experiment: Growth inhibition of Escherichia coli NCIM 2576 at 30 ug/ml measured after 8 hrs relative to control; type: functional; settings: NCIM 2576, 8 h, read-out: GI
Escherichia coli [10] = experiment: Growth inhibition of Escherichia coli NCIM 2576 at 10 ug/ml measured after 8 hrs relative to control; type: functional; settings: NCIM 2576, 8 h, read-out: GI
Escherichia coli [11] = experiment: Growth inhibition of Escherichia coli NCIM 2576 at 1 ug/ml measured after 8 hrs relative to control; type: functional; settings: NCIM 2576, 8 h, read-out: GI
Pseudomonas fluorescens [12] = experiment: Growth inhibition of Pseudomonas fluorescens NCIM 2059 at 30 ug/ml measured after 8 hrs relative to control; type: functional; settings: NCIM 2059, 8 h, read-out: GI
Pseudomonas fluorescens [13] = experiment: Growth inhibition of Pseudomonas fluorescens NCIM 2059 at 10 ug/ml measured after 8 hrs relative to control; type: functional; settings: NCIM 2059, 8 h, read-out: GI
Pseudomonas fluorescens [14] = experiment: Growth inhibition of Pseudomonas fluorescens NCIM 2059 at 1 ug/ml measured after 8 hrs relative to control; type: functional; settings: NCIM 2059, 8 h, read-out: GI
Staphylococcus aureus [15] = experiment: Growth inhibition of Staphylococcus aureus NCIM 2602 at 30 ug/ml measured after 12 hrs relative to control; type: functional; settings: NCIM 2602, 12 h, read-out: GI
Staphylococcus aureus [16] = experiment: Growth inhibition of Staphylococcus aureus NCIM 2602 at 10 ug/ml measured after 12 hrs relative to control; type: functional; settings: NCIM 2602, 12 h, read-out: GI
Staphylococcus aureus [17] = experiment: Growth inhibition of Staphylococcus aureus NCIM 2602 at 1 ug/ml measured after 12 hrs relative to control; type: functional; settings: NCIM 2602, 12 h, read-out: GI
Bacillus subtilis [18] = experiment: Growth inhibition of Bacillus subtilis NCIM 2162 at 30 ug/ml measured after 12 hrs relative to control; type: functional; settings: NCIM 2162, 12 h, read-out: GI
Bacillus subtilis [19] = experiment: Growth inhibition of Bacillus subtilis NCIM 2162 at 10 ug/ml measured after 12 hrs relative to control; type: functional; settings: NCIM 2162, 12 h, read-out: GI
Bacillus subtilis [20] = experiment: Growth inhibition of Bacillus subtilis NCIM 2162 at 1 ug/ml measured after 12 hrs relative to control; type: functional; settings: NCIM 2162, 12 h, read-out: GI
Escherichia coli [21] = experiment: Antibacterial activity against Escherichia coli NCIM 2576 measured after 8 hrs; type: functional; settings: NCIM 2576, 8 h
Pseudomonas fluorescens [22] = experiment: Antibacterial activity against Pseudomonas fluorescens NCIM 2059 measured after 8 hrs; type: functional; settings: NCIM 2059, 8 h
Staphylococcus aureus [23] = experiment: Antibacterial activity against Staphylococcus aureus NCIM 2602 measured after 12 hrs; type: functional; settings: NCIM 2602, 12 h
Bacillus subtilis [24] = experiment: Antibacterial activity against Bacillus subtilis NCIM 2162 measured after 12 hrs; type: functional; settings: NCIM 2162, 12 h
[25] = (§1) Growth inhibition of human HeLa cells by MTT assay; type: cell-based; settings: HeLa cells
HeLa = experiment: as §1; type: cell-based; settings: hela
[26] = (§2) Growth inhibition of human A549 cells by MTT assay; type: cell-based; settings: A549 cells
A549 = experiment: as §2; type: cell-based; settings: a549
[27] = (§3) Growth inhibition of human PANC1 cells by MTT assay; type: cell-based, PANC-1; settings: PANC-1 cells
PANC-1 = experiment: as §3; type: cell-based; settings: panc-1
[28] = Selectivity index, ratio of GI50 for human HeLa cells to MIC for Mycobacterium tuberculosis H37Ra ATCC 25177 dormant stage; type: toxicity, cell-based; settings: read-out: Selectivity Index
[29] = Selectivity index, ratio of GI50 for human HeLa cells to MIC for Mycobacterium bovis BCG ATCC 35743 dormant stage; type: toxicity, cell-based; settings: read-out: Selectivity Index
[30] = Selectivity index, ratio of GI50 for human A549 cells to MIC for Mycobacterium tuberculosis H37Ra ATCC 25177 dormant stage; type: toxicity; settings: read-out: Selectivity Index
[31] = Selectivity index, ratio of GI50 for human A549 cells to MIC for Mycobacterium bovis BCG ATCC 35743 dormant stage; type: toxicity; settings: read-out: Selectivity Index
[32] = Selectivity index, ratio of GI50 for human PANC1 cells to MIC for Mycobacterium tuberculosis H37Ra ATCC 25177 dormant stage; type: toxicity; settings: PANC-1 cells, read-out: Selectivity Index
[33] = Selectivity index, ratio of GI50 for human PANC1 cells to MIC for Mycobacterium bovis BCG ATCC 35743 dormant stage; type: toxicity; settings: PANC-1 cells, read-out: Selectivity Index

Row | SMILES | inhibition of growth at 30 µg/mL [1] [%] | inhibition of growth at 10 µg/mL [2] [%] | inhibition of growth at 3 µg/mL [3] [%] | inhibition of growth at 30 µg/mL [4] [%] | inhibition of growth at 10 µg/mL [5] [%] | inhibition of growth at 1 µg/mL [6] [%] | IC50 [7] [nM] | MIC90 [7] [µM] | IC50 [8] [nM] | MIC90 [8] [µM] | inhibition of growth at 30 µg/mL (Escherichia coli [9]) [%] | inhibition of growth at 10 µg/mL (Escherichia coli [10]) [%] | inhibition of growth at 1 µg/mL (Escherichia coli [11]) [%] | inhibition of growth at 30 µg/mL (Pseudomonas fluorescens [12]) [%] | inhibition of growth at 10 µg/mL (Pseudomonas fluorescens [13]) [%] | inhibition of growth at 1 µg/mL (Pseudomonas fluorescens [14]) [%] | inhibition of growth at 30 µg/mL (Staphylococcus aureus [15]) [%] | inhibition of growth at 10 µg/mL (Staphylococcus aureus [16]) [%] | inhibition of growth at 1 µg/mL (Staphylococcus aureus [17]) [%] | inhibition of growth at 30 µg/mL (Bacillus subtilis [18]) [%] | other results
1 | Cc1nc(-c2ccccc2)oc1-c1csc(Cc2ccc(Cl)cc2)n1 | 98 | 93 | 92 | 97 | 97 | 96 | 350 | 7.19 (≈ 2.64 µg/mL) | 320 | 5.8 (≈ 2.13 µg/mL) | 97.9 | 84.5 | 78.7 | 95 | 87.3 | 81 | 92.4 | 85.6 | 79.1 | 90.4 | inhibition of growth at 10 µg/mL (Bacillus subtilis [19]): 85.2%; inhibition of growth at 1 µg/mL (Bacillus subtilis [20]): 74.2%; MIC (Escherichia coli [21]): 18.3 µg/mL; MIC (Pseudomonas fluorescens [22]): 18 µg/mL; MIC (Staphylococcus aureus [23]): 22.7 µg/mL; MIC (Bacillus subtilis [24]): 27.6 µg/mL; GI50 [25]: 124 µg/mL (≈ 339 µM); GI90 (HeLa): > 250 µg/mL; GI50 [26]: > 250 µg/mL; GI90 (A549): > 250 µg/mL; GI50 [27]: > 250 µg/mL; GI90 (PANC-1): > 250 µg/mL; selectivity ratio [28]: 47; selectivity ratio [29]: 58; selectivity ratio [30]: 95; selectivity ratio [31]: 117; selectivity ratio [32]: 95; selectivity ratio [33]: 117
2 | Cc1nc(-c2ccccc2)oc1-c1csc(Cc2cccc(Cl)c2)n1 | 98 | 97 | 96 | 95 | 94 | 94 | 230 | 3.49 (≈ 1.28 µg/mL) | 760 | 3.76 (≈ 1.38 µg/mL) | 95.9 | 88.7 | 74.7 | 95.8 | 82.7 | 79.3 | 92.2 | 81.3 | 73.2 | 92 | inhibition of growth at 10 µg/mL (Bacillus subtilis [19]): 86.8%; inhibition of growth at 1 µg/mL (Bacillus subtilis [20]): 80.3%; MIC (Escherichia coli [21]): 15.4 µg/mL; MIC (Pseudomonas fluorescens [22]): 20.9 µg/mL; MIC (Staphylococcus aureus [23]): 25.6 µg/mL; MIC (Bacillus subtilis [24]): 21.7 µg/mL; GI50 [25]: 68.7 µg/mL (≈ 187 µM); GI90 (HeLa): > 250 µg/mL; GI50 [26]: > 250 µg/mL; GI90 (A549): > 250 µg/mL; GI50 [27]: > 250 µg/mL; GI90 (PANC-1): > 250 µg/mL; selectivity ratio [28]: 54; selectivity ratio [29]: 50; selectivity ratio [30]: 195; selectivity ratio [31]: 181; selectivity ratio [32]: 195; selectivity ratio [33]: 181
3 | Cc1nc(-c2ccc(F)cc2)oc1-c1csc(Cc2ccccc2)n1 | 99 | 94 | 95 | 97 | 96 | 97 | 490 | 6.2 (≈ 2.17 µg/mL) | 540 | 7.33 (≈ 2.57 µg/mL) | 94 | 90.3 | 88.8 | 99.6 | 92.4 | 87 | 98.5 | 95.9 | 93.9 | 99.9 | inhibition of growth at 10 µg/mL (Bacillus subtilis [19]): 95.8%; inhibition of growth at 1 µg/mL (Bacillus subtilis [20]): 91.2%; MIC (Escherichia coli [21]): 20.6 µM; MIC (Pseudomonas fluorescens [22]): 19.1 µM; MIC (Staphylococcus aureus [23]): 6.85 µM; MIC (Bacillus subtilis [24]): 5.99 µM; GI50 [25]: 148 µg/mL (≈ 423 µM); GI90 (HeLa): 248.63 µg/mL (≈ 710 µM); GI50 [26]: > 250 µg/mL; GI90 (A549): > 250 µg/mL; GI50 [27]: > 250 µg/mL; GI90 (PANC-1): > 250 µg/mL; selectivity ratio [28]: 68; selectivity ratio [29]: 58; selectivity ratio [30]: 115; selectivity ratio [31]: 97; selectivity ratio [32]: 115; selectivity ratio [33]: 97
4 | Cc1nc(-c2ccccc2)oc1-c1csc(-c2ccccc2)n1 | 93 | 71 | 56 | 92 | 63 | 63 | 8660 | 87.5 (≈ 27.9 µg/mL) | 7340 | 85.9 (≈ 27.4 µg/mL) | 98.2 | 94.2 | 91.2 | 97.7 | 93.4 | 88.9 | 94.2 | 89.9 | 85.7 | 96.8 | inhibition of growth at 10 µg/mL (Bacillus subtilis [19]): 93.2%; inhibition of growth at 1 µg/mL (Bacillus subtilis [20]): 91.3%; MIC (Escherichia coli [21]): 7.54 µM; MIC (Pseudomonas fluorescens [22]): 13.8 µM; MIC (Staphylococcus aureus [23]): 39.3 µM; MIC (Bacillus subtilis [24]): 7.91 µM; GI50 [25]: 123 µg/mL (≈ 387 µM); GI90 (HeLa): > 250 µg/mL; GI50 [26]: > 250 µg/mL; GI90 (A549): > 250 µg/mL; GI50 [27]: > 250 µg/mL; GI90 (PANC-1): > 250 µg/mL; selectivity ratio [28]: 4; selectivity ratio [29]: 5; selectivity ratio [30]: 9; selectivity ratio [31]: 9; selectivity ratio [32]: 9; selectivity ratio [33]: 9
5 | Cc1nc(-c2ccc(F)cc2)oc1-c1csc(Cc2ccc(F)cc2)n1 | 93 | 93 | 91 | 96 | 95 | 93 | 180 | 1.74 (≈ 0.641 µg/mL) | 190 | 1.76 (≈ 0.648 µg/mL) | 94.8 | 85.2 | 72.2 | 95.9 | 83.2 | 78.6 | 94.1 | 82.1 | 80 | 96.7 | inhibition of growth at 10 µg/mL (Bacillus subtilis [19]): 88.2%; inhibition of growth at 1 µg/mL (Bacillus subtilis [20]): 83.5%; MIC (Escherichia coli [21]): 60.3 µM; MIC (Pseudomonas fluorescens [22]): 54.8 µM; MIC (Staphylococcus aureus [23]): 62.7 µM; MIC (Bacillus subtilis [24]): 39.1 µM; GI50 [25]: 94.9 µg/mL (≈ 258 µM); GI90 (HeLa): > 250 µg/mL; GI50 [26]: > 250 µg/mL; GI90 (A549): > 250 µg/mL; GI50 [27]: > 250 µg/mL; GI90 (PANC-1): > 250 µg/mL; selectivity ratio [28]: 148; selectivity ratio [29]: 146; selectivity ratio [30]: 391; selectivity ratio [31]: 385; selectivity ratio [32]: 391; selectivity ratio [33]: 385
